Results reported in patent US20260158177A1, “COMPOUNDS SPECIFIC TO GRANZYME B AND USES THEREOF” (CYTOSITE BIOPHARMA INC., priority 2021, published 2026).
Numbered stars: 1 amine (or outer) side, 2 acyl side, 3 side chain; on linkers, the order of the positions; unused ones are H or OH. Square brackets hold non-standard residues; d marks the D form. Peptide text beside a SMILES is read from it. * marks the point of attachment. X2 = O=C1CN2CCN(CCN(CC3CCN(CC(=O)*)CC3)CC2)CC(=O)[O][Al]([F])[O]1; Haic = O=C1[C@@H](N[*:1])CCc2cccc3c2N1[C@H](C(=O)[*:2])C3; NH(5-HO-2-oxo-oxolan-4-yl) = O=C1CC(N*)C(O)O1

Molecular target: T1, human granzyme B (Homo sapiens, UniProt P10144)
T1 construct: from tissue; host or cells: human lymphocytes
Test: Competitive binding assay of human granzyme B with Compound ^18F-21-Al radioligand
Conditions: competition with 20 nM Compound ^18F-21-Al, human lymphocyte GZB, 37° C., 90 minutes
Protocol: Purpose: To perform competitive binding assays with human granzyme B using Compound ^18F-21-Al to determine IC50 values of potential granzyme B ligands
Initial Plate Preparation (including total binding and non-specific binding): • 1. 78 μL of reaction buffer, as described above, is added to each well in a 96 well plate • 2. For wells used to examine total binding (defined as the binding of the radioligand in the absence of competitors), 2 μL of DMSO is added to give 1% final DMSO concentration for all wells • 3. For wells used to examine non-specific binding (defined as the binding of the radioligand in the presence of 10 μM 21), 2 μL of 1 mM Compound 21 is added to give a final concentration of 10 μM
• 1. Granzyme B (GZB, human lymphocyte) is diluted to 0.5 μg/mL using reaction buffer as described above • 2. 100 μL of 0.5 μg/mL diluted human GzB is added to each well, giving 50 ng per well and a final concentration of 0.25 μg/mL
• 1. DMSO or water is added to the respective compound vial to make 1 mM compound stock solution • 2. 1 mM compound stock solution is serially diluted by ½ log (3.16 fold) by adding 18.5 μL of compound stock to 40 μL of DMSO, mixing by pipetting up and down, and transferring 18.5 μL of the mixture to 40 μL of DMSO. This process is repeated to create 10 dilution points for test compounds. • 3. For wells used to examine ligand binding competition, 2 μL of each dilution is dispensed into the 96 well plates prepared as described above, giving a further dilution of 1/100.
• 1. 200 nM of Compound ^18F-21-Al (10× radioligand stock) is prepared in reaction buffer, aiming for approximately 2 million CPM per 20 μL of solution (input). • 2. 20 μL of radioligand stock is dispensed into each well to give a final concentration per well of 20 nM.
• 1. All 96 wells should have a final volume of 200 μL, and the assay plates are incubated at 37° C. for 90 minutes. • 2. All samples from the assay plates are transferred to MultiScreenHTS FB plates that have been presoaked in PBS buffer, pH 7.4, and filtered using a vacuum manifold. An additional 150 μL of PBS buffer is added to each well in the assay plates and combined to ensure transfer of any remaining samples • 3. MultiScreenHTS FB plates are washed 3× with 150 μL of PBS buffer. • 4. All filters are separated and transferred to individual tubes using Multiscreen punch tips and the Millipore multiple punch apparatus • 5. The sample set is analyzed using the Wizard 2480 automatic gamma-counter [Perkin Elmer] through a [^18F]-specific profile. Values are reported as decay-corrected counts per minute (CPM). • 6. Resulting CPM values are normalized and converted to % inhibition by the following equation:
[formula] • *the total bound fraction is typically less than 10% of the added radioligand under such assay conditions. • Resulting % inhibition values were plotted using the software GraphPad Prism 8.4.3 using the One site—Fit log IC50 equation to determine the IC50 value for each ligand.
[formula] • Y=% Inhibition • X=Log concentration of the cold competing ligand (M) • A=minimum Y (0%) • B=maximum Y (100%) • Log IC50=Log concentration of cold competing ligand (M) at half-way between minimum and maximum Y

T1 sequence (P10144 21-247): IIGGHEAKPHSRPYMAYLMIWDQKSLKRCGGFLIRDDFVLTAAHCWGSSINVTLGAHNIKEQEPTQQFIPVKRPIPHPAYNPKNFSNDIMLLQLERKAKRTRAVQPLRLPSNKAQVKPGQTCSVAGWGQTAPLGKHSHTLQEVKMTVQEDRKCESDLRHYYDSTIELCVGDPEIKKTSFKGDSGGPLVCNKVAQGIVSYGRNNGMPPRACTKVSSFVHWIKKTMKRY

Structure (SMILES) | IC50
CC[C@H](C)[C@H](NC(=O)COCCNC(=O)[C@@H](CCC(=O)O)NC(=O)CN1CCN(C(=O)CN2CCN3CCN(CC2)CC(=O)[O][Al]([F])[O]C(=O)C3)CC1)C(=O)N[C@H]1CCc2cccc3c2N(C1=O)[C@H](C(=O)NC1CC(=O)OC1O)C3 (stereo partly drawn) [Compound 9-Al, 2,2′-(7-(2-(4-((4R,13S,14S)-4-(2-carboxyethyl)-13-(((3S,6S)-6-((2-hydroxy-5-oxotetrahydrofuran-3-yl)carbamoyl)-4-oxo-1,2,3,4,6,7-hexahydroazepino[3,2,1-hi]indol-3-yl)carbamoyl)-14-methyl-2,5,11-trioxo-9-oxa-3,6,12-triazahexadecyl)piperazin-1-yl)-2-oxoethyl)-1,4,7-triazonane-1,4-diyl)diacetic acid, aluminum fluoride complex (1:1)] | 3.5 ± 0.78 nM
CC[C@H](C)[C@H](NC(=O)CNC(=O)CNC(=O)[C@H](CCC(=O)O)NC(=O)CN1CCC(CN2CCN3CCN(CC2)CC(=O)[O][Al]([F])[O]C(=O)C3)CC1)C(=O)N[C@H]1CCc2cccc3c2N(C1=O)[C@H](C(=O)NC1CC(=O)OC1O)C3 (stereo partly drawn) [Compound 2-Al, 2,2′-(7-((1-((4S,13S,14S)-4-(2-carboxyethyl)-13-(((3S,6S)-6-((2-hydroxy-5-oxotetrahydrofuran-3-yl)carbamoyl)-4-oxo-1,2,3,4,6,7-hexahydroazepino[3,2,1-hi]indol-3-yl)carbamoyl)-14-methyl-2,5,8,11-tetraoxo-3,6,9,12-tetraazahexadecyl)piperidin-4-yl)methyl)-1,4,7-triazonane-1,4-diyl)diacetic acid aluminum fluoride complex (1:1)] (X2-EGGI[Haic]-{NH(5-HO-2-oxo-oxolan-4-yl)}) | 7.5 nM
CC[C@H](C)[C@H](NC(=O)COCCOCCNC(=O)COCCOCCNC(=O)[C@@H](CCC(=O)O)NC(=O)CN1CCN(C(=O)CN2CCN3CCN(CC2)CC(=O)[O][Al]([F])[O]C(=O)C3)CC1)C(=O)N[C@H]1CCc2cccc3c2N(C1=O)[C@H](C(=O)NC1CC(=O)OC1O)C3 (stereo partly drawn) [Compound 11-Al, 2,2′-(7-(2-(4-((4R,25S,26S)-4-(2-carboxyethyl)-25-(((3S,6S)-6-((2-hydroxy-5-oxotetrahydrofuran-3-yl)carbamoyl)-4-oxo-1,2,3,4,6,7-hexahydroazepino[3,2,1-hi]indol-3-yl)carbamoyl)-26-methyl-2,5,14,23-tetraoxo-9,12,18,21-tetraoxa-3,6,15,24-tetraazaoctacosyl)piperazin-1-yl)-2-oxoethyl)-1,4,7-triazonane-1,4-diyl)diacetic acid, aluminum fluoride complex (1:1)] | 2.4 nM
CC[C@H](C)[C@H](NC(=O)COCCNC(=O)[C@@H](CCC(=O)O)NC(=O)[C@@H](CCC(=O)O)NC(=O)CN1CCN(C(=O)CN2CCN3CCN(CC2)CC(=O)[O][Al]([F])[O]C(=O)C3)CC1)C(=O)N[C@H]1CCc2cccc3c2N(C1=O)[C@H](C(=O)NC1CC(=O)OC1O)C3 (stereo partly drawn) [Compound 10-Al, 2,2′-(7-(2-(4-((4R,7R,16S,17S)-4,7-bis(2-carboxyethyl)-16-(((3S,6S)-6-((2-hydroxy-5-oxotetrahydrofuran-3-yl)carbamoyl)-4-oxo-1,2,3,4,6,7-hexahydroazepino[3,2,1-hi]indol-3-yl)carbamoyl)-17-methyl-2,5,8,14-tetraoxo-12-oxa-3,6,9,15-tetraazanonadecyl)piperazin-1-yl)-2-oxoethyl)-1,4,7-triazonane-1,4-diyl)diacetic acid, aluminum fluoride complex (1:1)] | 3.6 nM
CC[C@H](C)[C@H](NC(=O)CC[C@@H](NC(=O)CN1CCN(C(=O)CN2CCN3CCN(CC2)CC(=O)[O][Al]([F])[O]C(=O)C3)CC1)C(=O)O)C(=O)N[C@H]1CCc2cccc3c2N(C1=O)[C@H](C(=O)NC1CC(=O)OC1O)C3 (stereo partly drawn) [Compound 14-Al, 2,2′-(7-(2-(4-(2-(((1R)-1-carboxy-4-(((2S,3S)-1-(((3S,6S)-6-((2-hydroxy-5-oxotetrahydrofuran-3-yl)carbamoyl)-4-oxo-1,2,3,4,6,7-hexahydroazepino[3,2,1-hi]indol-3-yl)amino)-3-methyl-1-oxopentan-2-yl)amino)-4-oxobutyl)amino)-2-oxoethyl)piperazin-1-yl)-2-oxoethyl)-1,4,7-triazonane-1,4-diyl)diacetic acid, aluminum fluoride complex (1:1)] | 2.7 nM
CC[C@H](C)[C@H](NC(=O)COCCNC(=O)[C@@H](CCC(=O)O)NC(=O)[C@@H](CCC(=O)O)NC(=O)CN1CCC(CN2CCN3CCN(CC2)CC(=O)[O][Al]([F])[O]C(=O)C3)CC1)C(=O)N[C@H]1CCc2cccc3c2N(C1=O)[C@H](C(=O)NC1CC(=O)OC1O)C3 (stereo partly drawn) [Compound 4-Al, 2,2′-(7-((1-((4R,7R,16S,17S)-4,7-bis(2-carboxyethyl)-16-(((3S,6S)-6-((2-hydroxy-5-oxotetrahydrofuran-3-yl)carbamoyl)-4-oxo-1,2,3,4,6,7-hexahydroazepino[3,2,1-hi]indol-3-yl)carbamoyl)-17-methyl-2,5,8,14-tetraoxo-12-oxa-3,6,9,15-tetraazanonadecyl)piperidin-4-yl)methyl)-1,4,7-triazonane-1,4-diyl)diacetic acid, aluminum fluoride complex (1:1)] | 2.8 nM
CC[C@H](C)[C@H](NC(=O)CCNC(=O)CCNC(=O)[C@@H](CCC(=O)O)NC(=O)[C@@H](CCC(=O)O)NC(=O)CN1CCN(C(=O)CN2CCN3CCN(CC2)CC(=O)[O][Al]([F])[O]C(=O)C3)CC1)C(=O)N[C@H]1CCc2cccc3c2N(C1=O)[C@H](C(=O)NC1CC(=O)OC1O)C3 (stereo partly drawn) [Compound 16-Al, 2,2′-(7-(2-(4-((4R,7R,18S,19S)-4,7-bis(2-carboxyethyl)-18-(((3S,6S)-6-((2-hydroxy-5-oxotetrahydrofuran-3-yl)carbamoyl)-4-oxo-1,2,3,4,6,7-hexahydroazepino[3,2,1-hi]indol-3-yl)carbamoyl)-19-methyl-2,5,8,12,16-pentaoxo-3,6,9,13,17-pentaazahenicosyl)piperazin-1-yl)-2-oxoethyl)-1,4,7-triazonane-1,4-diyl)diacetic acid, aluminum fluoride complex (1:1)] | 4.2 nM
CC[C@H](C)[C@H](NC(=O)CCNC(=O)CC[C@H](NC(=O)CN1CCC(CN2CCN3CCN(CC2)CC(=O)[O][Al]([F])[O]C(=O)C3)CC1)C(=O)O)C(=O)N[C@H]1CCc2cccc3c2N(C1=O)[C@H](C(=O)NC1CC(=O)OC1O)C3 (stereo partly drawn) [Compound 6-Al, 2,2′-(7-((1-(2-(((1S)-1-carboxy-4-((3-(((2S,3S)-1-(((3S,6S)-6-((2-hydroxy-5-oxotetrahydrofuran-3-yl)carbamoyl)-4-oxo-1,2,3,4,6,7-hexahydroazepino[3,2,1-hi]indol-3-yl)amino)-3-methyl-1-oxopentan-2-yl)amino)-3-oxopropyl)amino)-4-oxobutyl)amino)-2-oxoethyl)piperidin-4-yl)methyl)-1,4,7-triazonane-1,4-diyl)diacetic acid, aluminum fluoride complex (1:1)] | 4.5 nM
CC[C@H](C)[C@H](NC(=O)CCNC(=O)CCNC(=O)[C@H](CC(C(=O)O)C(=O)O)NC(=O)CN1CCN(C(=O)CN2CCN3CCN(CC2)CC(=O)[O][Al]([F])[O]C(=O)C3)CC1)C(=O)N[C@H]1CCc2cccc3c2N(C1=O)[C@H](C(=O)NC1CC(=O)OC1O)C3 (stereo partly drawn) [Compound 15-Al, 2-((2S)-2-(2-(4-(2-(4,7-bis(carboxymethyl)-1,4,7-triazonan-1-yl)acetyl)piperazin-1-yl)acetamido)-3-((3-((3-(((2S,3S)-1-(((3S,6S)-6-((2-hydroxy-5-oxotetrahydrofuran-3-yl)carbamoyl)-4-oxo-1,2,3,4,6,7-hexahydroazepino[3,2,1-hi]indol-3-yl)amino)-3-methyl-1-oxopentan-2-yl)amino)-3-oxopropyl)amino)-3-oxopropyl)amino)-3-oxopropyl) malonic acid, aluminum fluoride complex (1:1)] | 2.5 nM
